Assays:
[1] = target: Mitochondrial complex I; NADH oxidoreductase (Bos taurus, UniProt P25708+P52505); assay: Inhibitory concentration needed to halve the control NADH oxidase activity in bovine heart submitochondrial particles (SMP); assay type: protein-complex assay
[2] = target: Mitochondrial complex I; NADH oxidoreductase (Bos taurus) (UniProt P25708+P52505); assay: Maximum inhibition (2 uM) halve the control NADH oxidase activity in bovine heart submitochondrial particles (SMP); assay type: protein-complex assay

Sequence of Mitochondrial complex I; NADH oxidoreductase (P25708 21-464 limits assumed, other chains not shown): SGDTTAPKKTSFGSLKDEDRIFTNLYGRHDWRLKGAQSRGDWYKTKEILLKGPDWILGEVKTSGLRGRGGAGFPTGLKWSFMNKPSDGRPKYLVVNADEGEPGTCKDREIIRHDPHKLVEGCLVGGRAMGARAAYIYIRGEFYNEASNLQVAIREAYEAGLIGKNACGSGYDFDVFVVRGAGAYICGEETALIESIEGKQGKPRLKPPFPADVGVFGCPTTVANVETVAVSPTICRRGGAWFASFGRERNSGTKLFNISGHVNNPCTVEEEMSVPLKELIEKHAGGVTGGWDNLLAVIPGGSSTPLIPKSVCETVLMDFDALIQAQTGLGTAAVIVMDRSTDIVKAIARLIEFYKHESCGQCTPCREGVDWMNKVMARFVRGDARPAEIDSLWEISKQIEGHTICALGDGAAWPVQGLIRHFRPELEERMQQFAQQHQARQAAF

CCCCCCCCCCC[C@H]1CC[C@H]([C@H]2CC[C@H]([C@H](O)CCCCCCCCCCCCC3=C[C@H](C)OC3=O)O2)O1
IC50 [1]: 3.1 nM

CCCCCCCCCC[C@@H](O)[C@H]1CC[C@H]([C@H]2CC[C@H]([C@H](O)CCCCCCCCCCCCC3=C[C@H](C)OC3=O)O2)O1 [ISODESAACETYLUVARICIN]
IC50 [1]: 0.75 nM

CCCCCCCCCC[C@@H](O)[C@H]1CC[C@H]([C@H]2CC[C@H](CCCCCCCCCCCCCC3=C[C@H](C)OC3=O)O2)O1
IC50 [1]: 2.7 nM

CCCCCCCCCCC[C@H]1CC[C@H]([C@H]2CC[C@H](CCCCCCCCCCCCCC3=C[C@H](C)OC3=O)O2)O1
IC50 [1]: 85 nM | inhibition [2]: 85%
